Values belong to the compound of their own block, whether it stands above or below them.
Key:
NCI-H1581 = experiment: cells; conditions: Homo sapiens, NCI-H1581, 72 h
Description: Antiproliferative activity against FGFR1 amplified human NCI-H1581 cells after 72 hrs by CCK8 or MTT assay

[1] = molecular target: Fibroblast growth factor receptor 1 (Homo sapiens, UniProt P11362)
Description: Inhibition of recombinant FGFR1 (unknown origin) using poly (Glu,Tyr) 4:1 as substrate after 60 mins by ELISA

RT-112 = experiment: cells; conditions: Homo sapiens, RT-112, 72 h
Description: Antiproliferative activity against FGFR3 amplified human RT112 cells after 72 hrs by CCK8 or MTT assay

Huh-7 = experiment: cells; conditions: Homo sapiens, Huh-7, 72 h
Description: Antiproliferative activity against FGF19/FGFR4 expressing human HuH7 cells after 72 hrs by CCK8 or MTT assay

BaF3 [2] = experiment: cells; conditions: Mus musculus, BaF3, 72 h
Description: Antiproliferative activity against mouse BAF3 cells expressing TEL-fused FGFR4 kinase after 72 hrs by CCK8 or MTT assay

BaF3 [3] = experiment: cells; conditions: Mus musculus, BaF3, 72 h; remark: listed apart in the source
Description: Antiproliferative activity against mouse BAF3 cells expressing TEL-fused KDR kinase after 72 hrs by CCK8 or MTT assay

[4] = molecular target: Fibroblast growth factor receptor 4 (Homo sapiens, UniProt P22455); experiment: Inhibition of recombinant FGFR4 (unknown origin) using poly (Glu,Tyr) 4:1 as substrate after 60 mins by ELISA
Chain of Fibroblast growth factor receptor 4 (P22455 whole entry): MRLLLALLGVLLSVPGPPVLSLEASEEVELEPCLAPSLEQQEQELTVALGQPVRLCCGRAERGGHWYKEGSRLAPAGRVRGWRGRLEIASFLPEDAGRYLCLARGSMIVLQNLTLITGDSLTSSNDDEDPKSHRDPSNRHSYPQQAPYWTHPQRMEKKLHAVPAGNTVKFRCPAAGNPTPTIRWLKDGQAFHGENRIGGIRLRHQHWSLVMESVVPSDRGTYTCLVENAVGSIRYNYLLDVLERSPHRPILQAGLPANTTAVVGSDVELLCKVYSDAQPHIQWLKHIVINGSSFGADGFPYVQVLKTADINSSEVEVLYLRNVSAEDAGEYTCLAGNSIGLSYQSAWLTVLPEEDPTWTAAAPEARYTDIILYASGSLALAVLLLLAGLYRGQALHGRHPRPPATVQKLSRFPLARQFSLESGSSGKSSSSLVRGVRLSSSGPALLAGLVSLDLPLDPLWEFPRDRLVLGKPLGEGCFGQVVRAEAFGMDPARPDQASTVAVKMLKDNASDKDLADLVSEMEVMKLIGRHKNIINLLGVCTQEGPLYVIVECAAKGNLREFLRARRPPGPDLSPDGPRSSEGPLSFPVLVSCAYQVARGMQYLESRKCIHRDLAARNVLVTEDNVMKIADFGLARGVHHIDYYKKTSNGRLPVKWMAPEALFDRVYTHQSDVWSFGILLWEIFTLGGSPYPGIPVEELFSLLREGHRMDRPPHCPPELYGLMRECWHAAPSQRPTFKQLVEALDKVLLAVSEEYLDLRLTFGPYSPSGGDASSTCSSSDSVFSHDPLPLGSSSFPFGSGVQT

OPM-2 = experiment: cells; conditions: Homo sapiens, OPM-2, 72 h
Description: Antiproliferative activity against FGFR3 amplified human OPM2 cells after 72 hrs by CCK8 or MTT assay

[5] = Tmax in Sprague-Dawley rat at 10 mg/kg, po administered via gavage by HPLC-MS/MS analysis; assay type: ADME, organism-based; conditions: in vivo
[6] = Cmax in Sprague-Dawley rat at 10 mg/kg, po administered via gavage by HPLC-MS/MS analysis; assay type: ADME, organism-based; set-up: dose 10 mg/kg, route oral; conditions: in vivo
[7] = AUC in Sprague-Dawley rat at 10 mg/kg, po administered via gavage by HPLC-MS/MS analysis; assay type: ADME, organism-based; conditions: in vivo
[8] = Terminal half life in Sprague-Dawley rat at 10 mg/kg, po administered via gavage by HPLC-MS/MS analysis; assay type: ADME, organism-based; conditions: in vivo, read-out: beta t1/2 (converted)

Chain of Fibroblast growth factor receptor 1 (P11362 whole entry): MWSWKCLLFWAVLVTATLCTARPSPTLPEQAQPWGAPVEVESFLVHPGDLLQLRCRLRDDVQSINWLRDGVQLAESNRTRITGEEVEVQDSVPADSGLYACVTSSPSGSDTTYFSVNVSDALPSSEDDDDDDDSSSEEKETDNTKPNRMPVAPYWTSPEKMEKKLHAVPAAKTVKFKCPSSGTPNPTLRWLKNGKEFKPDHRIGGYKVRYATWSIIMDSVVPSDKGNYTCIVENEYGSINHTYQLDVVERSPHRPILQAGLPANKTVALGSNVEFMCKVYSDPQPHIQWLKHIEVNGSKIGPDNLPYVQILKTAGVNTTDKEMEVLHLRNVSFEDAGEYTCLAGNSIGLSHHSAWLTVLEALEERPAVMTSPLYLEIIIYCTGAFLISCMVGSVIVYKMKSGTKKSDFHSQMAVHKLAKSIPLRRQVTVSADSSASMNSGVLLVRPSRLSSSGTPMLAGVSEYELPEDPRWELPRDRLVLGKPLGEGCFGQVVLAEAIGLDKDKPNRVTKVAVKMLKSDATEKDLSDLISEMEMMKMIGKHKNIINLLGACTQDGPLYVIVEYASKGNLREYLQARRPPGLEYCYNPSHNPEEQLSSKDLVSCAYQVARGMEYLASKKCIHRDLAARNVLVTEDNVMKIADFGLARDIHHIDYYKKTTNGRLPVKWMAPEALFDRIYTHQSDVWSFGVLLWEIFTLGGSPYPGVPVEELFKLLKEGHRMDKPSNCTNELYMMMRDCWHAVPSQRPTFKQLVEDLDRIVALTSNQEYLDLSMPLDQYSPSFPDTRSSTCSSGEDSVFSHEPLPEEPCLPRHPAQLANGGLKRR

IC50 (NCI-H1581): 90.2 nM
SMILES: C=CC(=O)N1CCC(n2cc(-c3cc(OC)cc(OC)c3)c3c(N)ncnc32)C1 (centres undefined)

IC50 [1]: < 0.3 nM | IC50 (NCI-H1581): > 1000 nM
SMILES: C=CS(=O)(=O)N1CC(n2cc(-c3cc4cc(C)cc(OC)c4s3)c3c(N)ncnc32)C1

IC50 (RT-112): < 0.5 nM | IC50 (Huh-7): 57.2 nM | IC50 (BaF3 [2]): 133 nM | IC50 (BaF3 [3]): 3340 nM
SMILES: CCN1CCN(c2ccc(Nc3cc(N(C)C(=O)Nc4c(Cl)c(OC)cc(OC)c4Cl)ncn3)cc2)CC1 [INFIGRATINIB]

IC50 [4]: 6.2 nM | IC50 [1]: < 0.3 nM | IC50 (NCI-H1581): < 0.3 nM
SMILES: C=CC(=O)N1CCC(n2cc(-c3cc4cc(C)cc(OC)c4s3)c3c(N)ncnc32)C1 (centres undefined)

IC50 (NCI-H1581): < 0.3 nM
SMILES: C=CC(=O)N1CCC(n2cc(-c3cc4cccc(OC)c4s3)c3c(N)ncnc32)C1 (centres undefined)

IC50 (NCI-H1581): < 0.3 nM
SMILES: C=CC(=O)N1CC(n2cc(-c3cc4cccc(OC)c4s3)c3c(N)ncnc32)C1

IC50 (NCI-H1581): < 0.3 nM
SMILES: C=CC(=O)N1CCC(n2cc(-c3cc4cc(C)cc(OC)c4s3)c3c(N)ncnc32)CC1

IC50 (NCI-H1581): < 0.3 nM
SMILES: COc1cc(C)cc2cc(-c3cn(C4CCN(C(=O)/C=C/CN(C)C)C4)c4ncnc(N)c34)sc12 (centres undefined)

IC50 (NCI-H1581): < 0.3 nM
SMILES: C=CC(=O)N1CCCC1Cn1cc(-c2cc3cc(C)cc(OC)c3s2)c2c(N)ncnc21 (centres undefined)

IC50 (OPM-2): 83.6 nM | IC50 (RT-112): 36.4 nM | IC50 (Huh-7): 284 nM | IC50 (BaF3 [2]): 339 nM | IC50 (BaF3 [3]): 544 nM
SMILES: COc1cc(CCc2cc(NC(=O)c3ccc(N4C[C@@H](C)N[C@@H](C)C4)cc3)n[nH]2)cc(OC)c1 [FEXAGRATINIB]

Tmax [5]: 1.67 h | Cmax [6]: 12 ng/mL | AUC [7]: 46.4 ng·h/mL | half-life [8]: 2.11 h | IC50 (NCI-H1581): < 0.3 nM
SMILES: C=CC(=O)N1CC(n2cc(-c3cc4cc(C)cc(OC)c4s3)c3c(N)ncnc32)C1

IC50 (NCI-H1581): 15.9 nM
SMILES: C=CC(=O)N1CC(n2cc(-c3cc4c(OC)ccc(OC)c4s3)c3c(N)ncnc32)C1

IC50 (NCI-H1581): 227 nM
SMILES: C=CC(=O)N1CCCC(n2cc(-c3cc4cc(C)cc(OC)c4s3)c3c(N)ncnc32)C1 (centres undefined)

IC50 [4]: > 1000 nM
SMILES: C=CC(=O)N1CC(n2cc(-c3cc4cc(C)cc(OC)c4o3)c3c(N)ncnc32)C1

IC50 (NCI-H1581): 255 nM
SMILES: C=CC(=O)NCCn1cc(-c2cc3cc(C)cc(OC)c3s2)c2c(N)ncnc21
